Test results reported in patent publication USRE40793E1, “Bicyclic benzamides of 3-or 4-substituted 4-(aminomethyl)-piperidine derivatives” (Janssen Pharmaceutica, N.V., priority 1997, dated 2009).

Test system: conscious dogs
Experiment: Gastric emptying of an acaloric liquid test meal delayed by administration of lidamidine, in conscious dogs
Format: in vivo, beagle dogs
Details: compounds, conscious dog, Δt = t 70% compound minus t 70% solvent, relative to t 70% solvent
Excerpt: C. Pharmacological Examples C.1. Gastric Emptying of an Acaloric Liquid Test Meal Delayed by Administration of Lidamidine, in Conscious Dogs
Female beagle dogs, weighing 7-14 kg, were trained to stand quietly in Pavlov frames. They were implanted with a gastric cannula under general anesthesia and aseptic precautions. After a medium laparatomy, an incision was made through the gastric wall in the longitudinal direction between the greater and the lesser curve, 2 cm above the nerves of Latarjet. The cannula was secured to the gastric wall by means of a double purse string suture and brought out via a stab wound at the left quadrant of the hypochondrium. Dogs were allowed a recovery period of at least two weeks. Experiments were started after a fasting period of 24 hours, during which water was available ad libitum. At the beginning of the experiment, the cannula was opened in order to remove any gastric juice or food remnants.
The stomach was cleansed with 40 to 50 ml lukewarm water. The test compound was administered I.V. (in a volume ≦3 ml via the vena cephalica), S.C. (in a volume ≦3 ml) or P.O. (in a volume of 1 ml/kg body weight, applied intragastrically via the cannula with a device that filled the lumen of the cannula: after injection of the test compound; 5 ml NaCl 0.9% was injected in order to correct for the dead space in the injection system). Immediately after administration of the test compound or its solvent, lidamidine (0.63 mg/kg was administered subcutaneously. 30 min later, the cannula was opened to determine the amount of fluid present in the stomach, promptly followed by reintroduction of the fluid. Then the test meal was administered via the cannula. This test meal consisted of 250 ml distilled water containing glucose (5 g/l) as a marker. The cannula remained closed for 30 min, whereafter the gastric contents were drained from the stomach to measure total volume (t=30 min). For later analysis 1 ml of the gastric contents was taken, promptly followed by reintroduction of the rest volume into the stomach. This sequence was repeated 4 times with 30 min intervals (t=60, 90, 120, 150 min).
In the 1 ml samples of the gastric contents, the glucose concentrations were measured on a Hitachi 717 automatic analyzer by the hexokinase method (Schmidt, 1961).
Curves were fitted to the measurement points (glucose versus time) using weighed non-linear regression analysis. Gastric emptying was quantified as the time needed to empty 70% of the meal (t 70%). The control emptying time was calculated as the mean t 70% of the last 5 solvent experiments of the same dog. Acceleration of delayed gastric emptying (Δt) was calculated as the time difference between t 70% compound and t 70% solvent. To correct for variations in emptying rate between dogs, Δt was expressed as % of t 70% solvent (Schuurkes et al. 1992)).

Compound	ΔT/T^b (acceleration of gastric emptying of a liquid meal delayed by lidamidine) (dose 0.0025 mg/kg)	ΔT/T^a (acceleration of gastric emptying of a liquid meal delayed by lidamidine) (dose 0.01 mg/kg)	change in vivo at 0.0025 mg/kg (Canis lupus familiaris, dose 0.0025 mg/kg, read-out: ΔT/T^b (acceleration of gastric emptying of a liquid meal delayed by lidamidine))	change in vivo at 0.01 mg/kg (Canis lupus familiaris, dose 0.01 mg/kg, read-out: ΔT/T^a (acceleration of gastric emptying of a liquid meal delayed by lidamidine))
Nc1c(Cl)cc(C(=O)NC[C@@H]2CCN(CCOCCO)C[C@H]2O)c2c1CCCO2.O=C(O)C(=O)O (relative stereo) [Compound 75]	−0.39	−0.01		
N#CCN1CC[C@@H](CNC(=O)c2cc(Cl)c(N)c3c2OCCC3)[C@H](O)C1 (relative stereo) [Compound 76]		−0.18		
N#CCCCN1CC[C@@H](CNC(=O)c2cc(Cl)c(N)c3c2OCCC3)[C@H](O)C1 (relative stereo) [Compound 77]		−0.18		
CCCCN1CC[C@@H](CNC(=O)c2cc(Cl)c(N)c3c2OCCC3)[C@H](O)C1 (relative stereo) [Compound 78, trans-5-amino-N-[(1-butyl-3-hydroxy-4-piperidinyl)methyl]-6-chloro-3,4-dihydro-2H-1-benzopyran-8-carboxamide]			-33%	-50%
CC(=O)CCCN1CC[C@@H](CNC(=O)c2cc(Cl)c(N)c3c2OCCC3)[C@H](O)C1 (relative stereo) [Compound 80]	−0.11	−0.51		
COCCCN1CCC(O)(CNC(=O)c2cc(Cl)c(N)c3c2OC(C)(C)C3)CC1 [Compound 86]	−0.33	−0.47		
CC(=O)CCCN1CCC(O)(CNC(=O)c2cc(Cl)c(N)c3c2OC(C)(C)C3)CC1 [Compound 93]		−0.03		
(cis)-4-amino-5-chloro-2,3-dihydro-N-[[3-hydroxy-1-[3-(2-methyl-1,3-dioxolan-2-yl)propyl-]4-piperidinyl]methyl]-7-benzofurancarboxamide [Compound 7]	−0.07	0.11		
